Measurements: patent US7722863B2, “Use of granzyme b as an hsp70/hsp70 peptide dependent inducer of apoptosis in tumor cells” (Multimmune GmbH, priority 2002, dated 2010)

Experiments:
[1] = tested on: Hsp70 membrane-negative CX− cells; test: Annexin V-FITC apoptosis assay (flow cytometry); assay type: cell-based, human; conditions: for apoptosis in CX− cells: camptothecin 4 μg/ml or granzyme B 6 ng/ml; for amount of Annexin V-FITC positively stained CX− cells / fold increase of Annexin V-FITC positively stained CX− cells: camptothecin 4 μg/ml; for fold increase of Annexin V-FITC positively stained CX− cells: versus untreated
Method: (§1) Exponentially growing tumor cells (day 1 after cell passage) were used for granzyme B, camptothecin treatment and as targets in cytotoxicity assays.
(§2) Stock solutions of camptothecin (4 mg/ml, Sigma, Munich, Germany) were diluted in DMSO and stored at 4° C. in the dark. Granzyme B (6 ng/ml, Hölzel Diagnostics, Cologne, Germany) solutions were freshly prepared directly before usage. Exponentially growing cells (0.5-1.5×10^6/ml) were incubated either with camptothecin at a final concentration of 4 μg/ml or with purified, enzymatically active granzyme B (10 ng/ml, 1 μg/ml, 2 μg/ml; 4 μg/ml) (Shi et. al. (2000) Methods in Enzymology 322, 125) for 10 min, and 30 min either at 4° C. or at 37° C. After washing in RPMI-1640 medium binding and uptake was determined in nonpermeabilized and permeabilized tumor cells by flow cytometry and fluorescence microscopy on a Axioscop 25 scanning microscope (Zeiss, Jena, Germany) equipped with a 40× objective and standard filters. Images were treated by multiplicative shading correction using the software Axiovison (Zeiss Vison, Jena, Germany). Granzyme B was visualized in red by using the HC2-PE antibody.
(§3) Apoptotic Cell Death was Determined after Incubation of Tumor Cells with 6 ng/ml Granzyme B for 4 h, 12 h, and 24 h at 37° C. and Washing in RPMI-1640 Medium by Different Apoptosis Assays, as Described Below. Apoptosis Assays
(§4) Annexin V-FITC staining: Briefly, cells were washed twice in Hepes buffer containing 5 mM CaCl2 and incubated with Annexin V-FITC (Roche) for 10 min at room temperature. Annexin V-FITC positively stained cells were measured on a FACSCalibur flow cytometer (Becton Dickinson, Heidelberg, Germany).
(§5) The preceding findings posed the question whether purified granzyme B can induce apoptosis of tumor cells that present Hsp70 on their cell surface. […] As a positive control for apoptosis all cell types were incubated with the topoisomerase inhibitor camptothecin at a concentration of 4 μg/ml. Apoptosis was determined by Annexin V-FITC staining measured by FACS (FACSCalibur, Becton Dickinson, Heidelberg, Germany), DAPI staining and mitochondrial cytochrome c release. Apoptosis was not detected in CX+ and CX− cells incubated with camptothecin (cam) or granzyme B (grB) for 4 h incubation (FIG. 3A). […] It appeared that the colon carcinoma sublines CX+/CX− are better protected towards a camptothecin-mediated cell death as compared to the pancreas carcinoma sublines Colo+/Colo−.

[2] = tested on: Hsp70 membrane-positive CX+ cells; test: Annexin V-FITC apoptosis assay (flow cytometry); assay type: cell-based, human; conditions: camptothecin 4 μg/ml or granzyme B 6 ng/ml; for fold increase of Annexin V-FITC positively stained CX+ cells: versus untreated
Method: as §1, §2, §3, §4, §5

[3] = tested on: Hsp70 membrane-negative Colo− cells; test: Annexin V-FITC apoptosis assay (flow cytometry); assay type: cell-based, human; conditions: 12 h and 24 h; camptothecin 4 μg/ml or granzyme B 6 ng/ml
Method: as §1, §2, §3, §4, §5

[4] = tested on: Hsp70 membrane-positive Colo+ cells; test: Annexin V-FITC apoptosis assay (flow cytometry); assay type: cell-based, human; conditions: 12 h and 24 h; camptothecin 4 μg/ml
Method: as §1, §2, §3, §4, §5

Colo+ tumor cells = test: DAPI staining of nuclear DNA fragmentation; assay type: cell-based, human; conditions: 24 h, camptothecin 4 μg/ml or granzyme B 6 ng/ml
Method: (§6) DAPI-staining: Methanol/aceton fixed cells (0.1×10^6 cells/100 μl) were incubated with 0.5 μg/μl 4,6-diamino-2-phenylindole (DAPI) in PBS/glycerol (3:1), for 15 min in the dark. Following washing in PBS the cells were mounted with Fluorescent Mounting Medium (Dako, Glostrup, Denmark) and than analysed for fluorescence using a Zeiss model Axioscop 2 scanning microscope (Zeiss Jena, Germany) equipped with a 40× objective and standard filters. Apoptosis was visualized with DAPI-staining in 50 cells, each. Images were treated by multiplicative shading correction using software Axiovision (Zeiss Vision Jena, Germany).

CX+ tumor cells [5] = test: DAPI staining of nuclear DNA fragmentation; assay type: cell-based, human; conditions: 24 h, camptothecin 4 μg/ml or granzyme B 6 ng/ml
Method: as §6

Colo− tumor cells = test: DAPI staining of nuclear DNA fragmentation; assay type: cell-based, human; conditions: 24 h, camptothecin 4 μg/ml or granzyme B 6 ng/ml
Method: as §6

CX− tumor cells [6] = test: DAPI staining of nuclear DNA fragmentation; assay type: cell-based, human; conditions: 24 h, camptothecin 4 μg/ml or granzyme B 6 ng/ml
Method: as §6

CX+ tumor cells [7] = test: Cytochrome c release, quantitative immunoassay; assay type: cell-based, human; conditions: camptothecin 4 μg/ml or granzyme B 6 ng/ml, 24 h
Method: (§7) Cytochrome c release: Cytochrome c release was determined using a quantitative immunoassay; (DCDCO, R&D Systems, Wiesbaden, Germany). Briefly, either untreated, camptothecin (4 μg/ml) or granzyme B (6 ng/ml) treated CX+ and CX− cells (1.5×10^6/ml) were washed in PBS and treated with lysis buffer for 1 h at room temperature. Following centrifugation at 1,000 g for 15 min supernatants were removed and 200 μl of a 1:100, 1:250, and a 1:500 dilution was used for a sandwich ELISA. Following incubation with substrate solution in the dark for 30 min the reaction was stopped. The optical density of each well was determined on an ELISA reader at 450 nm. The amount of cytochrome c was determined according to a calibration curve.
(§8) As an additional test for apoptotic cell death, cytochrome c release was measured following incubation of CX+ and CX− cells with granzyme B for 24 h. As summarized in Table I, following incubation with granzyme B (6 ng/ml) for 24 h, cytochrome c concentration was elevated from 0.382 mg/ml to 0.690 mg/ml (1.8-fold) in CX+ cells. […] It was propose that the trigger of apoptosis by granzyme B is mediated via the extracellular exposed Hsp70 epitope TKD.

CX− tumor cells [8] = test: Cytochrome c release, quantitative immunoassay; assay type: cell-based, human; conditions: camptothecin 4 μg/ml or granzyme B 6 ng/ml, 24 h
Method: as §7, §8

[9] = tested on: Hsp70 membrane-positive tumor target cells; conditions: Hsp70-protein 10 to 50 μg/ml; cited from earlier work

CC[C@@]1(O)C(=O)OCc2c1cc1n(c2=O)Cc2cc3ccccc3nc2-1 [camptothecin, reference compound]
apoptosis in CX− cells ([1]; 4 h incubation): not detected | amount of Annexin V-FITC positively stained CX− cells ([1]; 12 h, untreated 12.1%): 19.8% | fold increase of Annexin V-FITC positively stained CX− cells ([1]; 12 h): 1.6 fold | apoptosis in CX− cells ([1]; 12 h and 24 h): underwent apoptosis | amount of Annexin V-FITC positively stained CX− cells ([1]; 24 h, untreated 11.9%): 25.1% | fold increase of Annexin V-FITC positively stained CX− cells ([1]; 24 h): 2.1 fold | apoptosis in CX+ cells ([2]; 4 h incubation): not detected | amount of Annexin V-FITC positively stained CX+ cells ([2]; 12 h, untreated 16.6%): 28.0% | fold increase of Annexin V-FITC positively stained CX+ cells ([2]; 12 h): 1.7 fold | apoptosis in CX+ cells ([2]; 12 h and 24 h): underwent apoptosis | amount of Annexin V-FITC positively stained CX+ cells ([2]; 24 h, untreated 18%): 39% | fold increase of Annexin V-FITC positively stained CX+ cells ([2]; 24 h): 2.1 fold | apoptosis in Colo− cells [3]: underwent apoptosis | apoptosis in Colo+ cells [4]: underwent apoptosis | nuclear DNA fragmentation (DAPI) (Colo+ tumor cells): exhibited nuclear fragmentation | nuclear DNA fragmentation (DAPI) (CX+ tumor cells [5]): exhibited nuclear fragmentation | nuclear DNA fragmentation (DAPI) (Colo− tumor cells): exhibited nuclear fragmentation | nuclear DNA fragmentation (DAPI) (CX− tumor cells [6]): exhibited nuclear fragmentation | cytochrome c fold increase (CX+ tumor cells [7]; control 1.0): 1.5 fold | cytochrome c (CX+ tumor cells [7]; mean of 4 experiments ± S.E., control 0.382 ± 0.02): 0.555 ± 0.04 mg/mL | cytochrome c fold increase (CX− tumor cells [8]; control 1.0): 1.5 fold | cytochrome c (CX− tumor cells [8]; mean of 4 experiments ± S.E., control 0.452 ± 0.02): 0.672 ± 0.02 mg/mL

Hsp70-protein: recombinant human Hsp70-protein (Stressgen)
cytolytic activity of NK cells against Hsp70 membrane-positive tumor target cells [9]: increased cytolytic activity
